Results on 1 molecule are retold here after patent publication US20100105758A1 (Centre de Recherche Public de la Sante, priority 2006, published 2010).

For assay [1], the system named is primary human macrophages. Description: MMP-9 mRNA expression in primary macrophages, quantitative PCR. The assay is classed as cell-based. The conditions noted are these: Ado and EHNA 10 μmol/L each, 24 hours. As for the experimental part:
(§1) Cell culture. All cell culture reagents were from Lonza (Verviers, Belgium) unless specified otherwise. Peripheral venous blood was obtained from healthy volunteers. Peripheral blood mononuclear cells were obtained by Ficoll gradient. Monocytes were purified by negative selection using the Monocyte Isolation Kit II (Myltenyi Biotec GmbH, Bergisch Gladbach, Germany). […] Macrophages were incubated for 15 minutes with Ado/EHNA (10 μmol/L) or vehicle, then LPS (100 ng/ml) or vehicle was added and cells were incubated for another 24 hours before harvesting. Cells from the monocyte-like line THP-1 (ATCC, LGC Promochem, Teddington, UK) were propagated at 37° C.-5% CO2 in RPMI 1640 medium supplemented with L-glutamine (2 mM), Penicillin (100 Units/ml), Streptomycin (100 μg/ml), non-essential amino acids solution (1 μM), sodium pyruvate (1 mM), and 10% heat-inactivated fetal calf serum (FCS) (Eurobio, Les Ulys, France). For experiments, FCS in culture medium was reduced to 1%. Cells were treated for 15 min with EHNA vehicle (DMSO), Ado (0.01 to 100 μM), Ado receptors agonists (0.1 to 10 μM), EHNA (10 μM) or Dipyridamole (DIP) (10 μM). Cells were then differentiated into macrophages with 150 nM phorbol myristate actetate (PMA) for 24 hours. Macrophages were subsequently treated with LPS (1 to 1000 ng/ml), fMLP (10^−7 M) or H2O2 (10 mM) for another 24 hours.
(§2) Real time quantitative PCR.

Assay [2] deals with THP-1-derived macrophages. Description: MMP-9 secretion by THP-1-derived macrophages, gelatin zymography and densitometry. It is filed as cell-based. As for the experimental part: Cells were incubated for 15 min with increasing concentrations of Ado and 10 μM EHNA before differentiation with 150 nM PMA for 48 hours. […] Concentrations of 10 μM Ado and 10 μM EHNA were used in further experiments. […] FIG. 2. […] THP-1 cells were treated for 15 min with Ado and 10 μM EHNA or vehicle before differentiation to macrophages with 150 nM PMA for 48 hours. EHNA, which inhibits Ado deaminase, and DIP, which inhibits Ado transport, were used to enhance endogenous Ado concentration. Gelatinase activity was measured in cell-free conditioned medium by zymography and densitometry. A. A representative zymogram is shown. […] C. Time-course experiment. […] FIG. 3. […] A. THP-1 cells were treated for 15 min with 10 μM Ado and 10 μM EHNA or vehicle before differentiation to macrophages with 150 nM PMA for 48 hours. […] B. THP-1 cells were treated for 15 min with 0.1, 1 or 10 μM of Ado receptors agonists (CPA, A1-specific; CGS21680, A2a-specific; IB-MECA, A3-specific). […] Gelatinase activity was assessed in conditioned medium. […] C. […] Cells were transfected with siRNA specific for A2a, A2b or A3 Ado receptors, incubated for 48 hours to achieve down-regulation of Ado receptors expression, treated for 15 min with 10 μM Ado and 10 μM EHNA or vehicle before differentiation to macrophages with 150 nM PMA for 48 hours. Conditioned medium was analysed by gelatin zymography. […] Cell culture. All cell culture reagents were from Lonza (Verviers, Belgium) unless specified otherwise. Peripheral venous blood was obtained from healthy volunteers. Peripheral blood mononuclear cells were obtained by Ficoll gradient. Monocytes were purified by negative selection using the Monocyte Isolation Kit II (Myltenyi Biotec GmbH, Bergisch Gladbach, Germany). […] Macrophages were incubated for 15 minutes with Ado/EHNA (10 μmol/L) or vehicle, then LPS (100 ng/ml) or vehicle was added and cells were incubated for another 24 hours before harvesting. Cells from the monocyte-like line THP-1 (ATCC, LGC Promochem, Teddington, UK) were propagated at 37° C.-5% CO2 in RPMI 1640 medium supplemented with L-glutamine (2 mM), Penicillin (100 Units/ml), Streptomycin (100 μg/ml), non-essential amino acids solution (1 μM), sodium pyruvate (1 mM), and 10% heat-inactivated fetal calf serum (FCS) (Eurobio, Les Ulys, France). For experiments, FCS in culture medium was reduced to 1%. Cells were treated for 15 min with EHNA vehicle (DMSO), Ado (0.01 to 100 μM), Ado receptors agonists (0.1 to 10 μM), EHNA (10 μM) or Dipyridamole (DIP) (10 μM). Cells were then differentiated into macrophages with 150 nM phorbol myristate actetate (PMA) for 24 hours. Macrophages were subsequently treated with LPS (1 to 1000 ng/ml), fMLP (10^−7 M) or H2O2 (10 mM) for another 24 hours. Analysis of gelatinase activity. Gelatin zymography was performed on culture supernatants to assess secreted MMP-9 activity. Briefly, conditioned medium was loaded on SDS-polyacrylamide gels containing 0.2% gelatin under non reducing conditions. After electrophoresis, gels were washed and incubated overnight at 37° C. in assay buffer (50 mM Tris-HCl, pH 7.6, 200 mM NaCl, 5 mM CaCl2, and 0.02% Brij35). Subsequently, gels were stained in 0.1% Coomassie Blue and destained in 25% ethanol/8% acetic acid. Densitometry was achieved using the Gel Logic 2200 Digital Imaging system and Aida Software (Kodak, Zavemtem, Belgium).

The conditions of assay [3]: in combination with lidocaine or primary angioplasty; cited from earlier work.
For assay [4], the system named is THP-1-derived macrophages. Description: MMP-9 mRNA expression in THP-1-derived macrophages, quantitative PCR. The conditions noted are these: THP-1 cells, after 48 hours of differentiation. It is filed as cell-based. How it is done:
FIG. 2. […] THP-1 cells were treated for 15 min with Ado and 10 μM EHNA or vehicle before differentiation to macrophages with 150 nM PMA for 48 hours. EHNA, which inhibits Ado deaminase, and DIP, which inhibits Ado transport, were used to enhance endogenous Ado concentration. Gelatinase activity was measured in cell-free conditioned medium by zymography and densitometry. A. A representative zymogram is shown. […] C. Time-course experiment.
as §1, with “For experiments, FCS in culture medium was reduced to 1%. Cells were treated for 15 min with EHNA vehicle (DMSO), Ado (0.01 to 100 μM), Ado receptors agonists (0.1 to 10 μM), EHNA (10 μM) or Dipyridamole (DIP) (10 μM). Cells were then differentiated into macrophages with 150 nM phorbol myristate actetate (PMA) for 24 hours. Macrophages were subsequently treated with LPS (1 to 1000 ng/ml), fMLP (10^−7 M) or H2O2 (10 mM) for another 24 hours.” left out
as §2

Turning to `Nc1ncnc2c1ncn2[C@@H]1O[C@H](CO)[C@@H](O)[C@H]1O` [adenosine], the “MMP-9 mRNA expression” value in assay [1] is “increased”; in assay [4], “more than two-fold increase”. The “increase of MMP-9 production” value in assay [2] (100 μM Ado with 10 μM EHNA, 15 min before differentiation with 150 nM PMA for 48 hours) stood at 3 fold. For the same molecule, the “MMP-9 secretion (zymography), modulators of Ado metabolism” value in assay [2] (added alone or in combination, Ado 10 μM, EHNA 10 μM, DIP 10 μM, PMA 48 hours) was “triggered MMP-9 secretion”. For the same molecule, the “incubation period necessary to reproduce the effect of Ado on MMP-9” value in assay [2] (time-course experiment, zymography of culture medium) was “at least 18 hours”. Also, the “cardiac function of patients with MI” value in assay [3] is “improved cardiac function”.
